Key:
[1] = biological target: T1, Aβ1-42 oligomers (Homo sapiens, UniProt P05067); assay: Selectivity for Aβ1-42 over tau domain (fluorescence); assay type: binding; settings: tau repeat domain 3 aggregates
T1 construct: Aβ1-42 peptide was aggregated at 37 °C for 8 hours
Procedure: Considering that tau protein aggregation is also a major pathological feature of AD, the selectivity of IK15j for Aβ1-42 over tau domains was further evaluated. […] Since repeat domain 3 is a core region of tau aggregates, IK15j was incubated with the tau domain or with Aβ1-42, and the resulting changes in fluorescence intensity were compared. Briefly, Aβ1-42 and tau aggregate samples were each treated with IK15j, and the fluorescence intensity was measured. As a result, the signal of IK15j increased in the presence of Aβ1-42 oligomers compared to that of the tau domain (FIG. 3E).

[2] = biological target: T2, Aβ oligomers (Homo sapiens, UniProt P05067); assay: Detection of Aβ oligomers spiked into human plasma; assay type: binding; settings: IK15j (100 µM) for 8 hours
T2 construct: Aβ1-42 peptide was aggregated at 37 °C for 8 hours
T2 sequence (P05067 672-713): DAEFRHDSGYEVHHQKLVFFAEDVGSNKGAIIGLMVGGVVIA
Procedure: Aβ1-42 peptide (1,000, 100, 10, 1, 0.1, 0.01, and 0.001 pg/mL) was aggregated at 37 °C for 8 hours and added to human plasma (Sigma-Aldrich, USA). Then, each plasma sample was treated with the compound of the present disclosure (100 µM) for 8 hours at room temperature. The signal of each sample was detected using a microplate reader (λex = 285 nm / λem = 475 nm).
To investigate whether the compound of the present disclosure interacts with Aβ oligomers in plasma, Aβ oligomers were spiked into human plasma (at 100, 10, 1, 0.1, 0.01, 0.001, and 0 pg/mL) and treated with IK15j (100 µM) for 8 hours, as described in Reference Example 9.

[3] = tested on: insoluble plaques in the 5XFAD mouse brain; assay: Brain staining of AD mouse model with compound and anti-Aβ antibody 6E10; settings: 5XFAD brain sections; co-staining with 6E10
Procedure: Mouse brain tissues were fixed in 4 % paraformaldehyde (Biosesang, Korea) at 4 °C overnight and then cryoprotected by immersion in 30 % sucrose for 48 hours. Brain sections (25 µm) were cut using a cryostat (CM1860, Leica) and mounted on slides. The brain tissue sections were treated with the compound of the present disclosure (500 µM) overnight at room temperature. After washing with 1X PBS, antigen retrieval for the fixed brain sections was performed in 1X PBS (Gibco, Korea) containing 1 % SDS (Biosesang, Korea) for 10 minutes, followed by blocking with 20 % horse serum in 1X PBS. After blocking for 1 hour, the slides were incubated with mouse monoclonal antibody 6E10 (1:200, BioLegend, USA) at room temperature for 1 hour. […] After staining the cortical and hippocampal regions of the fixed brain, each brain slide was visualized using a fluorescence microscope (DM500, Leica) equipped with filter cubes containing excitation and emission filters: N2.1 filter cube for detecting 6E10 staining (Excitation filter: BP 515-560; Dichromatic mirror: 580; Emission filter: LP 590) and L5 filter cube for detecting the compound of the present disclosure (Excitation filter: BP 480/40; Dichromatic mirror: 505; Emission filter: BP 527/30). […]

[4] = biological target: T1, Aβ1-42 oligomers; assay: Selectivity for Aβ variant oligomers (fluorescence); assay type: binding; settings: oligomeric Aβ variants 10 µM each; IK15j (10 µM)
Procedure: Accordingly, Aβ variant oligomers were prepared and incubated with IK15j to investigate the selectivity of the compound for Aβ variants. Briefly, samples of oligomeric Aβ1-40, Aβ1-42, and AβpE3-42 (10 µM each) were each treated with IK15j (10 µM), and the fluorescence intensity of each Aβ variant sample was measured.

T1 sequence (P05067 672-713): as above

For `Cc1ccc2c(c1)c(-c1ccccc1)cn1c(C)cc(C#N)c21` [IK15j, 3,8-dimethyl-6-phenylpyrrolo[2,1-a]isoquinoline-1-carbonitrile], the “signal in the presence of Aβ1-42 oligomers compared to the tau domain” value [1] was “increased”, the “signal in spiked human plasma compared to blank human plasma (0 pg/mL)” value ([2]; 1 pg/mL Aβ oligomers spiked) was “increased significantly” and the “increase in fluorescence intensity compared to the control” value ([2]; 10-100 pg/mL Aβ spiked human plasma samples) was 52%. The “signal in hippocampal and cortical regions (brain staining)” value [3] was “no signal” and the “fluorescence intensity in the presence of Aβ1-42 oligomers compared to Aβ1-40 or AβpE3-42 oligomers” value [4] was “increased markedly”.

Source: patent publication EP4755889A1, “COMPOUND FOR DETECTING AMYLOID-BETA OLIGOMER AND METHOD FOR DIAGNOSING DEGENERATIVE BRAIN DISEASE USING SAME” (Amyloid Solution Inc., priority 2024, dated 2025)
